Data as given in US10106542B2, “Substituted 6,7-dihydropyrazolo[1,5-a]pyrazines as negative allosteric modulators of mGluR2 receptors” (Janssen Pharmaceutica NV, priority 2013, dated 2018).

Key:
human mGlu2 receptor = molecular target: T1, human mGlu2 receptor (Homo sapiens, UniProt Q14416); assay: [35S]GTPγS binding assay (mGluR2 negative allosteric modulation); type: biochemical; conditions: for IC50: read-out: GTPγS - hmGluR2 anGT pIC50 (converted); for Emax: relative maximal effect: maximal % inhibition relative to the control glutamate response, read-out: GTPγS - hmGluR2 anGT Emax
T1 construct: expressed in transfected cells; host or cells: CHO cells (membrane preparation)
Summary of the method: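 Membranes from butyrate-stimulated CHO cells expressing human mGlu2; 7 μg protein in HEPES pH 7.4, 100 mM NaCl, 3 mM MgCl2, 10 μM GDP, 10 μg/ml saponin. Compound tested against EC80-equivalent glutamate; 0.1 nM [35S]GTPγS, 30 min, 30 °C; filtration, scintillation counting. Data as % of control glutamate response.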

rats = assay: Reversal of the effect of the mGluR2 PAM JNJ-42153605 on scopolamine-induced hyperlocomotion; type: in vivo; conditions: Rattus norvegicus, 1 h, test compound 60 min before recording, criterion total distance >1500 cm
Experimental: 2) Reversal of the Effect of the mGluR2 PAM JNJ-42153605 on Scopolamine-Induced Hyperlocomotion Apparatus
Motor activity was measured in microprocessor-based motor activity arenas (closed gray PVC cylinders with a height of 39 cm and a diameter of 31 cm). Each arena was placed on an infrared LED (8×8 LEDs) lit box (white PVC squared box; 40×40 cm^2; height 12.5 cm. An infrared-sensitive tube camera and a white light source were mounted to the ceiling above the observation chamber to track the animal. The total distance traveled (cm) was recorded and analyzed using the Noldus Ethovision XT Video Tracking System (Version 7.0.418; Noldus, Wageningen, The Netherlands). The intensity of the light within the activity cages (measured in the centre at the level of the floor) ranged between 4 and 8 LUX.
The rats were pretreated with test compound or vehicle at 60 min before the start of the activity recordings and placed into individual cages. The rats were challenged with JNJ-42153605 (3-(cyclopropylmethyl)-7-(4-phenylpiperidin-1-yl)-8-(trifluoromethyl)[1,2,4]triazolo[4,3-a]pyridine; WO2010/130424; Cid et al. J. Med. Chem. 2012, 55, 8770-8789) (20 mg/kg, i.v.) 30 min before the start of the activity recording combined with scopolamine (0.16 mg/kg, i.v.) just before the start of the activity measurements Immediately after the injection of scopolamine, the rats were placed into the activity monitors and total distance travelled over the first 30 min was measured.
Animals receiving the combination of JNJ-42153605 and scopolamine (n=433) almost always travelled a distance of less than 1500 cm (<1500 cm) (only 2.5% of the control rats travelled a distance of more than 1500 cm (>1500 cm)). On the other hand, animals challenged with scopolamine alone (n=215) always travelled a total distance of more than 1500 cm (>1500 cm) and almost always (in 95.8% of the rats) a distance of more than 4400 cm (>4400 cm). […] For reversal of the inhibitory effect of JNJ-42153605 on the scopolamine-induced hyperlocomotion, two all-or-none criteria were adopted: (1) reversal: total distance >1500 cm; (2) normalization: total distance >4400 cm.

Wiga rats = assay: Reserpine interaction test in rats; type: in vivo, rat; conditions: for ED50: Rattus norvegicus, po, Time 60, reserpine 10 mg/kg SC, Wiga rats, read-out: ED50, reversal of reserpine-induced ptosis
Experimental: 4) Reserpine Interaction Test in Rats
It was investigated to what extent the mydriatic action of test compounds was sufficient to counteract the miosis induced by the monoamines-depleting agent reserpine (10 mg/kg; SC) in Wiga rats.
The effects are illustrated in FIG. 3. […] The reference mGlu2 NAMs RO-4995819 (40 mg/kg, p.o.), RO-4491533 (40 mg/kg, p.o.; 10 mg/kg, s.c.) and [CAS 579473-69-1]

[1] = membranes from CHO cells transfected with human mGlu2 receptor, glutamate 60 μM, pIC50 = −log IC50 (M)

T1 sequence (Q14416 19-872): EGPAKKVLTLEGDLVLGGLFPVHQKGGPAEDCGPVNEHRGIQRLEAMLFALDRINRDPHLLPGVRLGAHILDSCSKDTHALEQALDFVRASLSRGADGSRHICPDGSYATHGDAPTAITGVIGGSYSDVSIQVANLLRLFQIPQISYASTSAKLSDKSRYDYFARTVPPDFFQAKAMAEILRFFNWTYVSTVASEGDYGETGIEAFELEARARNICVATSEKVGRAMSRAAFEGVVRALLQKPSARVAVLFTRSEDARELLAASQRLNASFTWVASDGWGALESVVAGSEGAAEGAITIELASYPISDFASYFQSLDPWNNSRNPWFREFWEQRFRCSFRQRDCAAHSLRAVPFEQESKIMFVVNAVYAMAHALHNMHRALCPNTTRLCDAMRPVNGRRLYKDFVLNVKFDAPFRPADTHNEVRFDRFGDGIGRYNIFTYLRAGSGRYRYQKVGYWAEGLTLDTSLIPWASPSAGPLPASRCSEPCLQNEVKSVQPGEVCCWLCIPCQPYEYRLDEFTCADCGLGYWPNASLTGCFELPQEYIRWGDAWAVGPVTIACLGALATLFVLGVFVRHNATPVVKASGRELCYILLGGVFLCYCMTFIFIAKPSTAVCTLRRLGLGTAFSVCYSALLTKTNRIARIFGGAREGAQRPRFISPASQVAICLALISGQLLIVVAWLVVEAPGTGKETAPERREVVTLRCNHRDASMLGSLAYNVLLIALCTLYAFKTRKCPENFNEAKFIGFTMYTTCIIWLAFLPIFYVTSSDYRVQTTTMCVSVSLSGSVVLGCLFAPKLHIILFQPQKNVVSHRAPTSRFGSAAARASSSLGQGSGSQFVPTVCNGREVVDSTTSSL

SMILES	IC50 (human mGlu2 receptor; [1])	Emax (human mGlu2 receptor)	ED50 (rats; Route PO)	ED50 (Wiga rats)	melting point	interactions with reserpine (mydriasis, reversal of ptosis, miosis, sedation) (Wiga rats; 10 mg/kg, s.c.)	interactions with reserpine (mydriasis, reversal of ptosis, miosis, sedation) (Wiga rats; 40 mg/kg, p.o.)	GTPγS - hmGluR2 anGT pIC50 (human mGlu2 receptor; [1])	ED50 (rats; Route SC)
CCOc1nc(N2C[C@H](C)n3ncc(-c4ccnc(C)c4)c3C2=O)ccc1C(F)(F)F (single isomer, unassigned) [compound 200]	5.89e-09 M	105%	3.15 mg/kg	0.13 mg/kg	122.3 °C				
Cc1cc(-c2cccc(C3=Nc4cc(C)c(C(F)(F)F)cc4NC(=O)C3)c2)cc(C)n1 [RO-4491533, reference compound]						devoid of these interactions with reserpine	devoid of these interactions with reserpine		
Nc1ccc(C#Cc2cnn3c(C(F)(F)F)cc(-c4ccc(C(F)(F)F)cc4)nc23)cn1 [RO-4995819, reference compound]							devoid of these interactions with reserpine		
COCc1cc(-c2cnn3c2C(=O)N(c2ccc(C(F)(F)F)cc2)C[C@@H]3C)ccn1 [compound 22]	6.92e-08 M	104%		0.13 mg/kg					
Cc1cncc(-c2cnn3c2C(=O)N(c2ccc(C(F)(F)F)cc2)C[C@@H]3C)c1 [compound 24]				≥ 10 mg/kg					
COc1c(C)cc(N2C[C@H](C)n3ncc(-c4ccnc(C)c4)c3C2=O)cc1C [compound 34]	5.62e-07 M	100%		0.8 mg/kg	> 300 °C				
COc1ccc(N2C[C@H](C)n3ncc(-c4ccnc(C)c4)c3C2=O)cc1F [compound 35]	6.03e-07 M	100%		> 10 mg/kg					
Cc1ccc(-c2cnn3c2C(=O)N(c2ccc(C(F)(F)F)cc2)C[C@@H]3C)cn1 [compound 36]	8.32e-07 M	100%		5 mg/kg	128.2 °C				
COc1ccc(N2C[C@H](C)n3ncc(-c4ccnc(C)c4)c3C2=O)cc1 [compound 38]	9.55e-07 M	103%		5 mg/kg					
Cc1cc(-c2cnn3c2C(=O)N(c2ccc(C(F)(F)F)cc2)CC3)ccn1 [compound 40]	1.48e-06 M	105%		0.32 mg/kg	137 °C				
COc1ccc(N2C[C@H](C)n3ncc(-c4ccnc(C)c4)c3C2=O)cc1OC [compound 41]	3.55e-06 M	95%		3.15 mg/kg	166.9 °C				
Cc1ccc(N2C[C@H](C)n3ncc(-c4ccnc(C)c4)c3C2=O)cc1 [compound 78]				≥ 10 mg/kg					
Cc1cc(-c2cnn3c2C(=O)N(c2cccc(OC(C)C)c2)C[C@@H]3C)ccn1 [compound 79]	5.13e-07 M	104%		5 mg/kg					
Cc1cc(-c2cnn3c2C(=O)N(c2ccc(C#N)cc2)C[C@@H]3C)ccn1 [compound 80]				> 2.5 mg/kg					
CCOc1ccc(N2C[C@H](C)n3ncc(-c4ccnc(C)c4)c3C2=O)cc1.Cl [compound 81, (7S)-5-(4-Ethoxyphenyl)-7-methyl-3-(2-methyl-4-pyridyl)-6,7-dihydropyrazolo[1,5-a]pyrazin-4-one hydrochloride salt]	5.37e-07 M	103%		5 mg/kg					
Cc1cc(-c2cnn3c2C(=O)N(c2cc(F)cc(F)c2)C[C@@H]3C)ccn1 [compound 82]	6.31e-07 M	101%		5 mg/kg					
CCOc1cccc(N2C[C@H](C)n3ncc(-c4ccnc(C)c4)c3C2=O)c1 [compound 83]	7.94e-07 M	104%		5 mg/kg					
CNc1cc(-c2cnn3c2C(=O)N(c2ccc(C(F)(F)F)c(Cl)c2)C[C@@H]3C)cc(C#N)n1 [compound 95]	1.78e-09 M	110%	> 2.5 mg/kg		210.61 °C (dec.)				
C[C@H]1CN(c2ccc(C(F)(F)F)cc2)C(=O)c2c(-c3ccnc(C(F)(F)F)c3)cnn21 [compound 99]	1.45e-08 M	108%	≥ 2.5 mg/kg		126.4 °C				
C[C@H]1CN(c2ccc(C(F)(F)F)c(Cl)c2)C(=O)c2c(-c3ccnc(C#N)c3)cnn21 [compound 100]		109%	> 10 mg/kg		144.9 °C			8.16	
C[C@H]1CN(c2ccc(C(F)(F)F)cc2)C(=O)c2c(-c3ccnc(N4CCC4)c3)cnn21 [compound 102]	8.32e-09 M	107%	≥ 2.5 mg/kg		129.8 °C				
C[C@H]1CN(c2ccc(C(F)(F)F)cc2)C(=O)c2c(-c3ccnc(C#N)c3)cnn21 [compound 127, 4-[(7S)-7-Methyl-4-oxo-5-[4-(trifluoromethyl)phenyl]-6,7-dihydropyrazolo[1,5-a]pyrazin-3-yl]pyridine-2-carbonitrile]	2.75e-08 M	103%	1.99 mg/kg		155.1 °C				
Cc1cc(-c2cnn3c2C(=O)N(c2cccc(C(C)O)c2)C[C@@H]3C)ccn1 (stereo partly shown) [compound 148]	5.62e-06 M	100%		1.99 mg/kg	149.7 °C				
Cc1cc(-c2cnn3c2C(=O)N(c2ccc(OC(F)(F)F)cc2)C[C@@H]3C)ccn1 [compound 152]	1e-08 M	105%	1.99 mg/kg		105.4 °C				
C[C@H]1CN(c2ccc(C(F)(F)F)cc2)C(=O)c2c(-c3ccnc(N(C)C)c3)cnn21 [compound 166]	2.51e-09 M	102%	0.5 mg/kg		99.8 °C				≥ 10 mg/kg
COc1cc(-c2cnn3c2C(=O)N(c2ccc(C(F)(F)F)c(OC)c2)C[C@@H]3C)ccn1 [compound 180]	1.32e-08 M	106%	≥ 2.5 mg/kg		76.8 °C				
CNc1cc(-c2cnn3c2C(=O)N(c2ccc(C(F)(F)F)c(F)c2)C[C@@H]3C)ccn1 [compound 182]	8.32e-09 M	106%	1.99 mg/kg		67.8 °C				
CCOc1nc(N2C[C@H](C)n3ncc(-c4ccnc(C)c4)c3C2=O)ccc1Cl [compound 201]	8.32e-09 M	105%	> 2.5 mg/kg		119.7 °C				
CNc1cc(-c2cnn3c2C(=O)N(c2ccc(C(F)(F)F)c(OC)n2)C[C@@H]3C)ccn1 [compound 237]	3.16e-09 M	111%	1.99 mg/kg		125.82 °C (dec.)				
